Values of other authors as cited in patent US20140314729A1, “NUTRACEUTICAL FORMULATION FOR TREATMENT OF ELEVATED CHOLESTEROL AND CARDIOVASCULAR DISEASE” (Creative Medical Health Inc., priority 2013, published 2014).

Experiments:
[1] = test system: patients with type 2 diabetes; conditions: oral 200 mg/day for 12 weeks
[2] = test system: mouse model; conditions: 150 mg/kg body weight for 10 days
[3] = test system: HIV-positive subjects; conditions: 1000 µg/day for eight weeks
[4] = test system: volunteers; conditions: 1.6 mg daily, 42-day period
[5] = test system: streptozotocin-treated rats; conditions: 80 μg/kg body weight daily for two weeks; P<0.001

For `COC1=C(OC)C(=O)C(C/C=C(\C)CC/C=C(\C)CC/C=C(\C)CC/C=C(\C)CC/C=C(\C)CC/C=C(\C)CC/C=C(\C)CC/C=C(\C)CC/C=C(\C)CCC=C(C)C)=C(C)C1=O` [coenzyme Q10], the “brachial artery flow-mediated dilation” value [1] is listed as “increased”.
For `CC(C)(COP(=O)(O)O)[C@@H](O)C(=O)NCCC(=O)O` [phosphopantothenate], the “content of triglycerides, total cholesterol and cholesterol esters in serum and adipose tissue” value [2] is listed as “decreased”.
In the case of chromium picolinate, the “increase of mean rate of glucose disposal” value [3] is listed as 25%, the “mean rate of glucose disposal after treatment” value ([3]; from 4.41, range 3.19-12.78, p=0.03) is listed as 6.51 mg/kg LBM/min and the “decrease in LDL cholesterol” value [4] is listed as 10.5%. For the same compound, the “decrease in total cholesterol” value [4] was 7%, the “LDL cholesterol after treatment” value ([4]; from 200) was 178 mg per dl and the “total cholesterol after treatment” value ([4]; from 276) was 256 mg per dl. For the same compound, the “average lowering of blood glucose compared with high-fat diet alone” value [5] was 63%, the “lowering of total cholesterol compared with high-fat diet alone” value [5] was 9.7% and the “lowering of triglycerides compared with high-fat diet alone” value [5] was 6.6%.
